Source: PubChem BioAssay (NCI)
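These data come from cells grown in 96-well plates and exposed to compound for 48 hours at five concentrations. TGI: total growth inhibition.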

Tests used:
Test in all cases: NCI tumour cell line growth inhibition, 48 h
786-0 renal = tested on: 786-0 renal
A549 NSCLC = tested on: A549 NSCLC
ACHN renal = tested on: ACHN renal
CCRF-CEM leukemia = tested on: CCRF-CEM leukemia
COLO 205 colon = tested on: COLO 205 colon
DLD-1 colon = tested on: DLD-1 colon
DMS 273 small cell lung = tested on: DMS 273 small cell lung
EKVX NSCLC = tested on: EKVX NSCLC
HCC-2998 colon = tested on: HCC-2998 colon
HCT-116 colon = tested on: HCT-116 colon
HCT-15 colon = tested on: HCT-15 colon
HL-60(TB) leukemia = tested on: HL-60(TB) leukemia
HOP-62 NSCLC = tested on: HOP-62 NSCLC
HT29 colon = tested on: HT29 colon
IGROV1 ovarian = tested on: IGROV1 ovarian
K-562 leukemia = tested on: K-562 leukemia
KM12 colon = tested on: KM12 colon
KM20L2 colon = tested on: KM20L2 colon
LOX IMVI melanoma = tested on: LOX IMVI melanoma
LXFL 529 NSCLC = tested on: LXFL 529 NSCLC
M14 melanoma = tested on: M14 melanoma
M19-MEL melanoma = tested on: M19-MEL melanoma
MALME-3M melanoma = tested on: MALME-3M melanoma
MOLT-4 leukemia = tested on: MOLT-4 leukemia
NCI-H226 lung = tested on: NCI-H226 lung
NCI-H23 lung = tested on: NCI-H23 lung
NCI-H460 lung = tested on: NCI-H460 lung
NCI-H522 lung = tested on: NCI-H522 lung
OVCAR-3 ovarian = tested on: OVCAR-3 ovarian
OVCAR-4 ovarian = tested on: OVCAR-4 ovarian
OVCAR-8 ovarian = tested on: OVCAR-8 ovarian
RXF 393 renal = tested on: RXF 393 renal
SF-268 CNS = tested on: SF-268 CNS
SF-295 CNS = tested on: SF-295 CNS
SF-539 CNS = tested on: SF-539 CNS
SK-MEL-2 melanoma = tested on: SK-MEL-2 melanoma
SK-MEL-28 melanoma = tested on: SK-MEL-28 melanoma
SK-MEL-5 melanoma = tested on: SK-MEL-5 melanoma
SK-OV-3 ovarian = tested on: SK-OV-3 ovarian
SN12C renal = tested on: SN12C renal
SNB-19 CNS = tested on: SNB-19 CNS
SNB-75 CNS = tested on: SNB-75 CNS
SNB-78 CNS = tested on: SNB-78 CNS
SR leukemia = tested on: SR leukemia
SW-620 colon = tested on: SW-620 colon
TK-10 renal = tested on: TK-10 renal
U251 CNS = tested on: U251 CNS
UACC-257 melanoma = tested on: UACC-257 melanoma
UACC-62 melanoma = tested on: UACC-62 melanoma
UO-31 renal = tested on: UO-31 renal
XF 498 CNS = tested on: XF 498 CNS
A498 renal = tested on: A498 renal
CAKI-1 renal = tested on: CAKI-1 renal
DMS 114 small cell lung = tested on: DMS 114 small cell lung
HOP-18 NSCLC = tested on: HOP-18 NSCLC
HOP-92 NSCLC = tested on: HOP-92 NSCLC
OVCAR-5 ovarian = tested on: OVCAR-5 ovarian
RPMI-8226 leukemia = tested on: RPMI-8226 leukemia

Measured: TGI

CC(=O)NC1=C(NCC(C)(C)C)C(=O)c2ccccc2C1=O
74.5 µM: ACHN renal
49.7 µM: NCI-H522 lung
39.8 µM: M19-MEL melanoma
65.5 µM: XF 498 CNS
not listed: A498 renal | CAKI-1 renal | DMS 114 small cell lung | HOP-18 NSCLC | HOP-92 NSCLC | OVCAR-5 ovarian | RPMI-8226 leukemia
> 100 µM: all other assays above

CSc1ccc(/C=C2\CN(C)C/C(=C\c3ccc(SC)cc3)C2=O)cc1
88.1 µM: SK-OV-3 ovarian
61.6 µM: COLO 205 colon
58 µM: XF 498 CNS
33.1 µM: U251 CNS
38.2 µM: SNB-75 CNS
78.9 µM: SF-539 CNS | SN12C renal
22.6 µM: LOX IMVI melanoma
67 µM: HT29 colon
34.5 µM: NCI-H23 lung
35.7 µM: LXFL 529 NSCLC
44.8 µM: KM12 colon
41.4 µM: SR leukemia
56 µM: OVCAR-3 ovarian
39.6 µM: OVCAR-8 ovarian
not listed: NCI-H522 lung | SNB-19 CNS
> 100 µM: all other assays above
